Measurements: PMC2726771 (The Journal of neuroscience : the official journal of the …, 2009)
Values joined by “and” are separate entries in the source; they are usually repeats but may differ in a detail not shown here. Identical values can stand only once. Like-named read-outs stand apart in the source and are kept apart here.

Columns and labels:
α3β2T150C nAChR = α3β2T150C nAChR (Rattus norvegicus, UniProt P04757+P12390, T176C); assay type: cell-based; conditions: for potentiation (IACh+Mor/IACh), sample traces Fig. 2: 300 μM ACh + 10 μM Mor; for potentiation: 10 μM Mor
α3T115Cβ2 nAChR = α3T115Cβ2 nAChR (Rattus norvegicus, UniProt P04757+P12390, T142C); assay type: cell-based; conditions: for time constant τ of MTSET modification: response to 300 μM ACh + 10 μM Mor; for potentiation (IACh+Mor/IACh), sample traces Fig. 2: 300 μM ACh + 10 μM Mor
α3E113R = conditions: ref Laureijs and Levandoski, unpublished; cited from earlier work
α3β2 wt nAChR [1] = target: T1, α3β2 wt nAChR (Rattus norvegicus, UniProt P04757+P12390); assay type: cell-based
α3β2S192C nAChR = α3β2S192C nAChR (Rattus norvegicus, UniProt P04757+P12390, S218C); assay type: cell-based
α3β2 wt nAChR [2] = target: T1, α3β2 wt nAChR; conditions: ref Wu et al., 2008, cited from earlier work
α3A106Cβ2 nAChR = α3A106Cβ2 nAChR (Rattus norvegicus, UniProt P04757+P12390, A133C); assay type: cell-based
α3β2S148C nAChR = α3β2S148C nAChR (Rattus norvegicus, UniProt P04757+P12390, S174C); assay type: cell-based
α3β2T193C nAChR = α3β2T193C nAChR (Rattus norvegicus, UniProt P04757+P12390, T219C); assay type: cell-based
α3S161Cβ2 nAChR = α3S161Cβ2 nAChR (Rattus norvegicus, UniProt P04757+P12390, S188C); assay type: cell-based
[3] = 100 μM MTSET + 200 μM ACh treatment, ACh + 10 μM Mor
[4] = 100 μM MTSET + 200 μM ACh, four 30-sec
[5] = after 100 μM reagent, four 30-sec doses
[6] = 100 μM MTSET co-applied with ACh, 2 min
[7] = 100 μM MTSET applied alone, 2 min
[8] = after 2-min 100 μM MTSET co-applied with ACh
[9] = relative to response to ACh alone at [ACh] ~ EC50

Sequence of α3β2S148C nAChR (P04757 26-499): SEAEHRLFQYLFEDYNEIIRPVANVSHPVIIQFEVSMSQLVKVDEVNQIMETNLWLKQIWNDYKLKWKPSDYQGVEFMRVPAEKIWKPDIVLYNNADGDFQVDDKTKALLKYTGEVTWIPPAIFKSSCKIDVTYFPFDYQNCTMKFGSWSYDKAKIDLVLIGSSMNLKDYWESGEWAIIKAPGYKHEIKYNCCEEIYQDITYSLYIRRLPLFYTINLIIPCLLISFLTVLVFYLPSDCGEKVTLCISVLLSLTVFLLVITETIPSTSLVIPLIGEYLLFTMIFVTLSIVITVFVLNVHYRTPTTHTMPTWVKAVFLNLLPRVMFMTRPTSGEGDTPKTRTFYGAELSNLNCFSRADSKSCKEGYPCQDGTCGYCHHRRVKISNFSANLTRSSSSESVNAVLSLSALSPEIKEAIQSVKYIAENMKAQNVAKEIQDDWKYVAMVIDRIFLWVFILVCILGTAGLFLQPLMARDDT
Sequence of α3β2S148C nAChR (P12390 25-500 S174C): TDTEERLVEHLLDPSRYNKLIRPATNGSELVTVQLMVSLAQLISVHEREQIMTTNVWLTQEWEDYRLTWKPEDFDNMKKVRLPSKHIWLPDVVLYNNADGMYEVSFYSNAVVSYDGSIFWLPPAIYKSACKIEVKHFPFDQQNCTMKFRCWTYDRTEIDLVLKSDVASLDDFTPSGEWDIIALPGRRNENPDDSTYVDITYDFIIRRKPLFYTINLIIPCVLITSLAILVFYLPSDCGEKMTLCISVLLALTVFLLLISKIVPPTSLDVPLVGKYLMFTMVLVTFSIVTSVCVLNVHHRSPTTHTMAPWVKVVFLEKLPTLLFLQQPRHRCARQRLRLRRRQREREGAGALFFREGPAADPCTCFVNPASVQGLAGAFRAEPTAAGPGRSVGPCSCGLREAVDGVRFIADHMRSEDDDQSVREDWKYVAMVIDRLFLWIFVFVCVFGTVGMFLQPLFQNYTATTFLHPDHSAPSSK
T1 sequence (P04757 26-499): as the sequence (P04757 26-499) above
T1 sequence (P12390 25-500): as the sequence (P12390 25-500 S174C) above, with C150S counted along it
Sequence of α3β2S192C nAChR (P04757 26-499): as the sequence (P04757 26-499) above
Sequence of α3β2S192C nAChR (P12390 25-500 S218C): as the sequence (P12390 25-500 S174C) above, with C150S, S194C counted along it
Sequence of α3β2T150C nAChR (P04757 26-499): as the sequence (P04757 26-499) above
Sequence of α3β2T150C nAChR (P12390 25-500 T176C): as the sequence (P12390 25-500 S174C) above, with C150S, T152C counted along it
Sequence of α3β2T193C nAChR (P04757 26-499): as the sequence (P04757 26-499) above
Sequence of α3β2T193C nAChR (P12390 25-500 T219C): as the sequence (P12390 25-500 S174C) above, with C150S, T195C counted along it
Sequence of α3T115Cβ2 nAChR (P04757 26-499 T142C): as the sequence (P04757 26-499) above, with T117C counted along it
Sequence of α3T115Cβ2 nAChR (P12390 25-500): as the sequence (P12390 25-500 S174C) above, with C150S counted along it
Sequence of α3A106Cβ2 nAChR (P04757 26-499 A133C): as the sequence (P04757 26-499) above, with A108C counted along it
Sequence of α3A106Cβ2 nAChR (P12390 25-500): as the sequence (P12390 25-500 S174C) above, with C150S counted along it
Sequence of α3S161Cβ2 nAChR (P04757 26-499 S188C): as the sequence (P04757 26-499) above, with S163C counted along it
Sequence of α3S161Cβ2 nAChR (P12390 25-500, stated change not applied): as the sequence (P12390 25-500 S174C) above, with C150S counted along it

## C[N+](C)(C)CCSS(C)(=O)=O.[Br-] [MTSET, [2-(trimethyl-ammonium)ethyl]methanesthiosulfonate bromide]
α3β2T150C nAChR; [3]
  decrease in efficacy of ACh/Mor concentration-response curve: 50%
  decrease in potency of ACh/Mor concentration-response curve: 3 fold
α3β2T150C nAChR; [4]
  decrease in ACh efficacy (maximum response at high ACh): 75%
  decrease in ACh potency after MTSET/agonist co-application: 4.5 fold
α3β2T150C nAChR; [5]
  decrease of Mor potency: without changing the potency
  reduction of maximum Mor-evoked current (efficacy): 75 - 80%
α3T115Cβ2 nAChR; 30 μM MTSET alone
  time constant τ of MTSET modification: 170 s and 167 ± 22 s
α3T115Cβ2 nAChR; 30 μM MTSET co-applied with 100 μM Mor
  time constant τ of MTSET modification: 720 s and 719 ± 137 s
α3T115Cβ2 nAChR; 30 μM MTSET co-applied with 300 μM ACh
  time constant τ of MTSET modification: 34 s and 34 ± 12 s
α3T115Cβ2 nAChR; after 100 μM MTS reagent alone
  reduction of ACh-evoked currents: unchanged
  reduction of ACh/Mor-evoked currents: 32 ± 9%
  reduction of degree of potentiation: 31 ± 8%
α3T115Cβ2 nAChR; after 100 μM MTSET alone
  decrease of Mor efficacy: 66%

## Cc1ccsc1C=CC1=NCCCN1C.O=C(O)C(O)C(O)C(=O)O [Mor, 1,4,5,6-tetrahydro-1-methyl-2-(2-[3-methyl-2-thienyl]ethenyl)pyrimidine, tartrate salt]
α3E113R
  Mor potentiation: completely abolishes Mor potentiation
α3β2 wt nAChR [1]; [6]
  Mor Potentiation % Change after MTS: 3 ± 3%
α3β2 wt nAChR [1]; [ACh] ~ EC50 ± 10 μM Mor
  Mor Potentiation IACh+Mor/IACh: 1.9 ± 0.1
α3β2 wt nAChR [1]; pre-MTSET, 100 μM ACh + 10 μM Mor
  potentiation (IACh+Mor/IACh), sample traces Fig. 2: 2.8
α3β2T150C nAChR; [7]
  Mor Potentiation % Change after MTS: * 52 ± 17%
α3β2T150C nAChR; Hill coefficient
  Mor-evoked Response nH: 2.3 ± 0.2
α3β2T150C nAChR; Mor EC50, Control, pre-treatment control, Fig. 7
  EC50: 20 ± 2 µM
α3β2T150C nAChR; Mor EC50 after BrACh, after 100 μM BrACh, four 30-sec doses
  EC50: 30 ± 5 µM
α3β2T150C nAChR; Mor EC50 after MTSBn, after 100 μM MTSBn, four 30-sec doses
  EC50: 80 ± 20 µM
α3β2T150C nAChR; Mor EC50 after MTSEA, after 100 μM MTSEA, four 30-sec doses
  EC50: 30 ± 1 µM
α3β2T150C nAChR; Mor EC50 after MTSET, after 100 μM MTSET, four 30-sec doses
  EC50: 20 ± 4 µM
α3β2T150C nAChR; Mor-evoked Response EC50, Mor as agonist
  EC50: 26 ± 1 µM
α3β2T150C nAChR; [ACh] ~ EC50 ± 10 μM Mor
  Mor Potentiation IACh+Mor/IACh: 1.6 ± 0.1
α3β2T150C nAChR; after 100 μM BrACh
  Mor nH after BrACh: 1.5 ± 0.4
α3β2T150C nAChR; after 100 μM BrACh, normalized to pre-treatment 300 μM Mor response
  Mor Emax after BrACh: 0.96 ± 0.07
α3β2T150C nAChR; after 100 μM MTSBn
  Mor nH after MTSBn: 2.7 ± 1.5
α3β2T150C nAChR; after 100 μM MTSBn, normalized to pre-treatment 300 μM Mor response
  Mor Emax after MTSBn: 0.56 ± 0.07
α3β2T150C nAChR; after 100 μM MTSEA
  Mor nH after MTSEA: 2.3 ± 0.3
α3β2T150C nAChR; after 100 μM MTSEA, normalized to pre-treatment 300 μM Mor response
  Mor Emax after MTSEA: 0.20 ± 0.01
α3β2T150C nAChR; after 100 μM MTSET
  Mor nH after MTSET: 3.4 ± 1.9
α3β2T150C nAChR; after 100 μM MTSET, normalized to pre-treatment 300 μM Mor response
  Mor Emax after MTSET: 0.24 ± 0.02
α3β2T150C nAChR; [8]
  potentiation (IACh+Mor/IACh), sample traces Fig. 2: 7.5
α3β2T150C nAChR; measured at ~EC50 ACh, after MTSET treatment
  potentiation: 4.0
α3β2T150C nAChR; measured at ~EC50 ACh, before MTSET treatment
  potentiation: 1.6
α3β2T150C nAChR; measured at ~EC75 ACh, after MTSET treatment
  potentiation: 3.0
α3β2T150C nAChR; measured at ~EC75 ACh, before MTSET treatment
  potentiation: 1.5
α3β2T150C nAChR; normalized to pre-treatment 300 μM Mor response
  Mor Emax, Control: 1.00
α3β2T150C nAChR; pre-MTSET
  potentiation (IACh+Mor/IACh), sample traces Fig. 2: 3.3
α3β2T150C nAChR; pre-treatment
  I300 μM Mor/I300 μM ACh (pre): 0.14 ± 0.01
α3β2T150C nAChR; pre-treatment control, Fig. 7
  Mor nH, Control: 2.2 ± 0.4
α3β2T150C nAChR; [9]
  Mor-evoked Response Emax: 0.33 ± 0.04
α3β2S192C nAChR
  EC50: 20 ± 6 µM
α3β2S192C nAChR; 100 μM MTSET alone, four 30-sec doses, 30 μM ACh
  change in Mor potentiation after MTSET alone: no change in potentiation outside of error
α3β2S192C nAChR; Hill coefficient
  Mor-evoked Response nH: 1.8 ± 0.7
α3β2S192C nAChR; [ACh] ~ EC50 ± 10 μM Mor
  Mor Potentiation IACh+Mor/IACh: 1.4 ± 0.1
α3β2S192C nAChR; [9]
  Mor-evoked Response Emax: 0.08 ± 0.01
α3β2 wt nAChR [2]; Hill coefficient
  Mor-evoked Response nH: 3.1 ± 1.6
α3β2 wt nAChR [2]; [9]
  Mor-evoked Response Emax: 0.2
α3T115Cβ2 nAChR
  EC50: 30 µM
α3T115Cβ2 nAChR; 30 μM ACh (~EC20)
  potentiation IACh+Mor/I30 μM ACh: 7.7
α3T115Cβ2 nAChR; 50 μM Mor included with the MTSET/300 μM ACh co-application
  potentiation post/pre: 1.05 ± 0.07
α3T115Cβ2 nAChR; 100 μM MTSET co-applied with ACh (300 μM), 2 min
  Mor Potentiation % Change after MTS: * -30 ± 4%
α3T115Cβ2 nAChR; 300 μM ACh (~EC50)
  potentiation IACh+Mor/I300 μM ACh: 2.2
α3T115Cβ2 nAChR; Hill coefficient, pre MTSET in Fig. 8
  Mor-evoked Response nH: 1.4 ± 0.1
α3T115Cβ2 nAChR; [ACh] ~ EC50 ± 10 μM Mor
  Mor Potentiation IACh+Mor/IACh: 2.3 ± 0.3
α3T115Cβ2 nAChR; after 100 μM MTSET alone, four 30-sec doses
  Mor nH post MTSET: 2.2 ± 1.4
α3T115Cβ2 nAChR; after 100 μM MTSET alone, normalized to 300 μM ACh before modification
  Mor Emax post MTSET: 0.1 and 0.10 ± 0.01
α3T115Cβ2 nAChR; [8]
  potentiation (IACh+Mor/IACh), sample traces Fig. 2: 2.8
α3T115Cβ2 nAChR; pre-MTSET
  potentiation (IACh+Mor/IACh), sample traces Fig. 2: 4.5
α3T115Cβ2 nAChR; relative to response to ACh alone at [ACh] ~ EC50 (300 μM), pre MTSET in Fig. 8
  Mor-evoked Response Emax: 0.3 and 0.29 ± 0.01
α3A106Cβ2 nAChR
  EC50: 62 ± 11 µM
α3A106Cβ2 nAChR; 100 μM MTSET alone, four 30-sec doses, 100 μM ACh
  change in Mor potentiation after MTSET alone: no change in potentiation outside of error
α3A106Cβ2 nAChR; Hill coefficient
  Mor-evoked Response nH: 2.1 ± 0.7
α3A106Cβ2 nAChR; [ACh] ~ EC50 ± 10 μM Mor
  Mor Potentiation IACh+Mor/IACh: 1.7 ± 0.2
α3A106Cβ2 nAChR; [9]
  Mor-evoked Response Emax: 0.56 ± 0.05
α3β2S148C nAChR
  EC50: 110 ± 40 µM
α3β2S148C nAChR; [7]
  Mor Potentiation % Change after MTS: -7 ± 10%
α3β2S148C nAChR; Hill coefficient
  Mor-evoked Response nH: 1.4 ± 0.5
α3β2S148C nAChR; [ACh] ~ EC50 ± 10 μM Mor
  Mor Potentiation IACh+Mor/IACh: 4.9 ± 1.0
α3β2S148C nAChR; [9]
  Mor-evoked Response Emax: 0.36 ± 0.05
α3β2T193C nAChR
  EC50: 20 ± 3 µM
α3β2T193C nAChR; [6]
  Mor Potentiation % Change after MTS: 2 ± 4%
α3β2T193C nAChR; Hill coefficient
  Mor-evoked Response nH: 1.7 ± 0.3
α3β2T193C nAChR; [ACh] ~ EC50 ± 10 μM Mor
  Mor Potentiation IACh+Mor/IACh: 1.5 ± 0.1
α3β2T193C nAChR; [9]
  Mor-evoked Response Emax: 0.24 ± 0.1
α3S161Cβ2 nAChR; [7]
  Mor Potentiation % Change after MTS: 3 ± 8%
α3S161Cβ2 nAChR; [ACh] ~ EC50 ± 10 μM Mor
  Mor Potentiation IACh+Mor/IACh: 1.3 ± 0.1
